Measured values taken from ChEMBL document CHEMBL1140971, “Synthesis of new 4-pyrrol-1-yl benzoic acid hydrazide analogs and some derived oxadiazole, triazole and pyrrole ring systems: a novel class of potential antibacterial and antitubercular agents” (2008).
Converted amounts (≈) assume the structure as drawn.

Columns and labels:
Type in all cases: functional
[1] = tested on: Mycobacterium tuberculosis; experiment: Antitubercular activity against Mycobacterium tuberculosis H37Rv after 21 days by broth dilution assay; details: 504 h
[2] = tested on: Staphylococcus aureus; experiment: Antibacterial activity against Staphylococcus aureus ATCC 11632 after 18 hrs by broth microdilution method; details: ATCC 11632, 18 h
[3] = tested on: Enterococcus faecalis; experiment: Antibacterial activity against Streptococcus faecalis ATCC 14506 after 18 hrs by broth microdilution method; details: ATCC 14506, 18 h
[4] = tested on: Bacillus subtilis; experiment: Antibacterial activity against Bacillus subtilis ATCC 60511 after 18 hrs by broth microdilution method; details: ATCC 60511, 18 h
[5] = tested on: Klebsiella pneumoniae; experiment: Antibacterial activity against Klebsiella pneumoniae ATCC 10031 after 18 hrs by broth microdilution method; details: ATCC 10031, 18 h
[6] = tested on: Escherichia coli; experiment: Antibacterial activity against Escherichia coli ATCC 10536 after 18 hrs by broth microdilution method; details: ATCC 10536, 18 h
[7] = tested on: Pseudomonas aeruginosa; experiment: Antibacterial activity against Pseudomonas aeruginosa ATCC 10145 after 18 hrs by broth microdilution method; details: ATCC 10145, 18 h

Structure (SMILES) | MIC [1] [µg/mL] | MIC [2] [µg/mL] | MIC [3] [µg/mL] | MIC [4] [µg/mL] | MIC [5] [µg/mL] | MIC [6] [µg/mL] | MIC [7] [µg/mL]
Sc1nnc(-c2ccc(-n3cccc3)cc2)o1 | 16 (≈ 65.8 µM) | 250 (≈ 1030 µM) | 31.2 (≈ 128 µM) | 8 (≈ 32.9 µM) | 125 (≈ 514 µM) | 31.2 (≈ 128 µM) | 31.2 (≈ 128 µM)
NNC(=O)c1ccc(-n2cccc2)cc1 | 125 (≈ 621 µM) | 250 (≈ 1240 µM) | 31.2 (≈ 155 µM) | 8 (≈ 39.8 µM) | 125 (≈ 621 µM) | 125 (≈ 621 µM) | 62.5 (≈ 311 µM)
CC(C)=NNC(=O)c1ccc(-n2cccc2)cc1 | 62.5 (≈ 259 µM) | 250 (≈ 1040 µM) | 125 (≈ 518 µM) | 62.5 (≈ 259 µM) | 250 (≈ 1040 µM) | 125 (≈ 518 µM) | 62.5 (≈ 259 µM)
Nn1c(-c2ccc(-n3cccc3)cc2)n[nH]c1=S | 62.5 (≈ 243 µM) | 500 (≈ 1940 µM) | 250 (≈ 972 µM) | 125 (≈ 486 µM) | 125 (≈ 486 µM) | 500 (≈ 1940 µM) | 125 (≈ 486 µM)
O=C(N/N=C/c1ccccc1)c1ccc(-n2cccc2)cc1 | 125 (≈ 432 µM) | 250 (≈ 864 µM) | 250 (≈ 864 µM) | 125 (≈ 432 µM) | 125 (≈ 432 µM) | 125 (≈ 432 µM) | 125 (≈ 432 µM)
O=C(N/N=C/c1ccc(O)cc1)c1ccc(-n2cccc2)cc1 | 31.2 (≈ 102 µM) | 125 (≈ 409 µM) | 125 (≈ 409 µM) | 62.5 (≈ 205 µM) | 125 (≈ 409 µM) | 62.5 (≈ 205 µM) | 62.5 (≈ 205 µM)
CC(=O)N1N=C(c2ccc(-n3cccc3)cc2)OC1c1c(Cl)cccc1Cl (stereo not drawn) | 31.2 (≈ 78.1 µM) | 62.5 (≈ 156 µM) | 62.5 (≈ 156 µM) | 31.2 (≈ 78.1 µM) | 62.5 (≈ 156 µM) | 62.5 (≈ 156 µM) | 31.2 (≈ 78.1 µM)
Cc1ccc(C)n1NC(=O)c1ccc(-n2cccc2)cc1 | 31.2 (≈ 112 µM) | 250 (≈ 895 µM) | 125 (≈ 447 µM) | 62.5 (≈ 224 µM) | 250 (≈ 895 µM) | 125 (≈ 447 µM) | 62.5 (≈ 224 µM)
O=C(NN=C(c1ccccc1)c1ccccc1)c1ccc(-n2cccc2)cc1 | 62.5 (≈ 171 µM) | 500 (≈ 1370 µM) | 250 (≈ 684 µM) | 62.5 (≈ 171 µM) | 125 (≈ 342 µM) | 125 (≈ 342 µM) | 62.5 (≈ 171 µM)
O=C(N/N=C/c1cccc([N+](=O)[O-])c1)c1ccc(-n2cccc2)cc1 | 62.5 (≈ 187 µM) | 500 (≈ 1500 µM) | 500 (≈ 1500 µM) | 250 (≈ 748 µM) | 500 (≈ 1500 µM) | 500 (≈ 1500 µM) | 62.5 (≈ 187 µM)
CC(=O)NNC(=O)c1ccc(-n2cccc2)cc1 | 62.5 (≈ 257 µM) | 500 (≈ 2060 µM) | 250 (≈ 1030 µM) | 62.5 (≈ 257 µM) | 125 (≈ 514 µM) | 500 (≈ 2060 µM) | 62.5 (≈ 257 µM)
CN(C)c1ccc(/C=N/NC(=O)c2ccc(-n3cccc3)cc2)cc1 | 62.5 (≈ 188 µM) | 250 (≈ 752 µM) | 125 (≈ 376 µM) | 125 (≈ 376 µM) | 125 (≈ 376 µM) | 250 (≈ 752 µM) | 125 (≈ 376 µM)
C/C(=N\NC(=O)c1ccc(-n2cccc2)cc1)c1ccccc1 | 62.5 (≈ 206 µM) | 250 (≈ 824 µM) | 125 (≈ 412 µM) | 62.5 (≈ 206 µM) | 125 (≈ 412 µM) | 125 (≈ 412 µM) | 62.5 (≈ 206 µM)
O=C(N/N=C/c1c(Cl)cccc1Cl)c1ccc(-n2cccc2)cc1 | 31.2 (≈ 87.2 µM) | 125 (≈ 349 µM) | 125 (≈ 349 µM) | 62.5 (≈ 174 µM) | 125 (≈ 349 µM) | 62.5 (≈ 174 µM) | 62.5 (≈ 174 µM)
CC(=O)N1N=C(c2ccc(-n3cccc3)cc2)OC1c1ccccc1 (stereo not drawn) | 31.2 (≈ 94.3 µM) | 250 (≈ 754 µM) | 125 (≈ 377 µM) | 62.5 (≈ 189 µM) | 62.5 (≈ 189 µM) | 125 (≈ 377 µM) | 62.5 (≈ 189 µM)
O=C(O)c1cn(C2CC2)c2cc(N3CCNCC3)c(F)cc2c1=O [CIPROFLOXACIN] |  | < 5 | < 5 | ≤ 1 | ≤ 1 | ≤ 1 | > 5
NNC(=O)c1ccncc1 [ISONIAZID] | 0.25 (≈ 1.82 µM) |  |  |  |  |  | 
CCn1cc(C(=O)O)c(=O)c2cc(F)c(N3CCNCC3)cc21 [NORFLOXACIN] |  | < 5 | < 5 | ≤ 1 | ≤ 1 | ≤ 1 | > 5
